Data: PubChem BioAssay AID1745844 (Carcinogenic Potency Database (CPDB), 2022)
Active and inactive are the calls of the source. The rule behind the calls is not given here.

System: rodent lifetime carcinogenesis bioassay, tumor incidence TD50
Assay: chronic cancer bioassays in animals – CPDB, compiled studies (AID 1745844)

## [N]=O
mouse, strain ICR/Jcl, females, inhaled, site: lung, lesion: adenoma, dosed 126 weeks, study length 126 weeks
  carcinogen call: negative (inactive)

## CC1SC(C)N(N=O)C(C)S1 (centres undefined)
rat, strain Fischer 344, females, by gavage, site: esophagus, lesion: squamous-cell carcinoma, dosed 43 weeks, study length 90 weeks
  TD50: 1.63 mg/kg/day
rat, strain Fischer 344, females, by gavage, site: esophagus, lesion: squamous-cell tumor, dosed 43 weeks, study length 90 weeks
  TD50: 0.483 mg/kg/day
rat, strain Fischer 344, females, by gavage, site: liver, lesion: cholangioma, dosed 43 weeks, study length 90 weeks
  TD50: 3.58 mg/kg/day
rat, strain Fischer 344, females, by gavage, site: liver, lesion: hepatocellular adenoma, dosed 43 weeks, study length 90 weeks
  TD50: 2.61 mg/kg/day
rat, strain Fischer 344, females, by gavage, site: tongue, lesion: squamous-cell tumor, dosed 43 weeks, study length 90 weeks
  TD50: 1.53 mg/kg/day

## C1C2OC2C2C1C1CC2C2OC12 (centres undefined)
mouse, strain CD-1 HaM/ICR, females, in feed, site: any site (literature study), lesion: several types, types named in the paper, dosed 64 weeks, study length 86 weeks
  TD50: 789 mg/kg/day (inactive)
mouse, strain CD-1 HaM/ICR, females, in feed, site: liver, lesion: several types, types named in the paper, dosed 64 weeks, study length 86 weeks
  carcinogen call: negative (inactive)
mouse, strain CD-1 HaM/ICR, females, in feed, site: lung, lesion: several types, types named in the paper, dosed 64 weeks, study length 86 weeks
  TD50: 1660 mg/kg/day (inactive)
mouse, strain CD-1 HaM/ICR, males, in feed, site: any site (literature study), lesion: several types, types named in the paper, dosed 77 weeks, study length 86 weeks
  TD50: 149 mg/kg/day (inactive)
mouse, strain CD-1 HaM/ICR, males, in feed, site: liver, lesion: several types, types named in the paper, dosed 77 weeks, study length 86 weeks
  TD50: 930 mg/kg/day (inactive)
mouse, strain CD-1 HaM/ICR, males, in feed, site: lung, lesion: several types, types named in the paper, dosed 77 weeks, study length 86 weeks
  TD50: 373 mg/kg/day (inactive)
rat, strain Charles River CD (Sprague-Dawley), males, in feed, site: any site (literature study), lesion: several types, types named in the paper, dosed 77 weeks, study length 107 weeks
  TD50: 176 mg/kg/day (inactive)
rat, strain Charles River CD (Sprague-Dawley), males, in feed, site: liver, lesion: several types, types named in the paper, dosed 77 weeks, study length 107 weeks
  TD50: 3910 mg/kg/day (inactive)

## [N-]=[N+]=O
mouse, strain Swiss Webster, females, inhaled, site: liver, lesion: one or several types, types not named, dosed 78 weeks, study length 83 weeks
  carcinogen call: negative (inactive)
mouse, strain Swiss Webster, females, inhaled, site: lung, lesion: adenoma, dosed 78 weeks, study length 83 weeks
  TD50: 309000 mg/kg/day (inactive)
mouse, strain Swiss Webster, females, inhaled, site: several sites, sites named in the paper, lesion: one or several types, types not named, dosed 78 weeks, study length 83 weeks
  carcinogen call: negative (inactive)
mouse, strain Swiss Webster, males, inhaled, site: liver, lesion: one or several types, types not named, dosed 78 weeks, study length 83 weeks
  carcinogen call: negative (inactive)
mouse, strain Swiss Webster, males, inhaled, site: lung, lesion: adenoma, dosed 78 weeks, study length 83 weeks
  carcinogen call: negative (inactive)
mouse, strain Swiss Webster, males, inhaled, site: several sites, sites named in the paper, lesion: one or several types, types not named, dosed 78 weeks, study length 83 weeks
  carcinogen call: negative (inactive)

## Cl
rat, strain Fischer 344, males, in feed, site: adrenal medulla, lesion: pheochromocytoma, dosed 104 weeks, study length 104 weeks
  TD50: 6210 mg/kg/day (inactive)
rat, strain Fischer 344, males, in feed, site: mammary gland, lesion: fibroadenoma, dosed 104 weeks, study length 104 weeks
  TD50: 33500 mg/kg/day (inactive)
rat, strain Sprague-Dawley, males, inhaled, site: liver, lesion: hepatocellular carcinoma, dosed 128 weeks, study length 128 weeks
  carcinogen call: negative (inactive)
rat, strain Sprague-Dawley, males, inhaled, site: nasal mucosa, lesion: one or several types, types not named, dosed 128 weeks, study length 128 weeks
  carcinogen call: negative (inactive)
rat, strain Wistar-random, females, in feed, site: urinary bladder, lesion: transitional-cell papilloma, dosed 130 weeks, study length 130 weeks
  TD50: 79500 mg/kg/day

## Cc1cc2c(nc1N)[nH]c1ccccc12
mouse, strain CDF1, females, in feed, site: blood vessels, lesion: hemangioendothelial sarcoma, dosed 84 weeks, study length 84 weeks
  TD50: 38.6 mg/kg/day
mouse, strain CDF1, females, in feed, site: liver, lesion: hepatocellular adenoma, dosed 84 weeks, study length 84 weeks
  TD50: 118 mg/kg/day
mouse, strain CDF1, females, in feed, site: liver, lesion: hepatocellular carcinoma, dosed 84 weeks, study length 84 weeks
  TD50: 98.9 mg/kg/day
mouse, strain CDF1, females, in feed, site: liver, lesion: several types, types named in the paper, dosed 84 weeks, study length 84 weeks
  TD50: 38.6 mg/kg/day
mouse, strain CDF1, females, in feed, site: lung, lesion: adenoma, dosed 84 weeks, study length 84 weeks
  TD50: 1840 mg/kg/day
mouse, strain CDF1, males, in feed, site: blood vessels, lesion: hemangioendothelial sarcoma, dosed 73 weeks, study length 73 weeks
  TD50: 15.6 mg/kg/day
mouse, strain CDF1, males, in feed, site: liver, lesion: hepatocellular adenoma, dosed 73 weeks, study length 73 weeks
  TD50: 90.9 mg/kg/day
mouse, strain CDF1, males, in feed, site: liver, lesion: hepatocellular carcinoma, dosed 73 weeks, study length 73 weeks
  TD50: 127 mg/kg/day
mouse, strain CDF1, males, in feed, site: liver, lesion: several types, types named in the paper, dosed 73 weeks, study length 73 weeks
  TD50: 43.5 mg/kg/day
mouse, strain CDF1, males, in feed, site: lung, lesion: adenoma, dosed 73 weeks, study length 73 weeks
  TD50: 1180 mg/kg/day
rat, strain F344/DuCrj, males, in feed, site: liver, lesion: hepatocellular carcinoma, dosed 100 weeks, study length 100 weeks
  TD50: 11.7 mg/kg/day
rat, strain F344/DuCrj, males, in feed, site: pancreas, lesion: acinar-cell adenoma, dosed 100 weeks, study length 100 weeks
  TD50: 8.7 mg/kg/day
rat, strain F344/DuCrj, males, in feed, site: pancreatic islets, lesion: islet-cell adenoma, dosed 100 weeks, study length 100 weeks
  TD50: 48.1 mg/kg/day
rat, strain F344/DuCrj, males, in feed, site: salivary gland, lesion: fibrosarcoma, dosed 100 weeks, study length 100 weeks
  TD50: 73.5 mg/kg/day
rat, strain F344/DuCrj, males, in feed, site: subcutaneous tissue, lesion: fibroma, dosed 100 weeks, study length 100 weeks
  TD50: 6.7 mg/kg/day
rat, strain F344/DuCrj, males, in feed, site: urinary bladder, lesion: transitional-cell carcinoma, dosed 100 weeks, study length 100 weeks
  TD50: 28.6 mg/kg/day

## Cc1ccc2c(c1)C(N1CCN(C)CC1)=Nc1ccccc1S2
rat, strain albino, females, in feed, site: mammary gland, lesion: fibroadenoma, dosed 78 weeks, study length 78 weeks
  carcinogen call: negative (inactive)
rat, strain albino, males, in feed, site: pituitary gland, lesion: adenoma, dosed 78 weeks, study length 78 weeks
  carcinogen call: negative (inactive)

## CC(=O)NNC(C)=O
mouse, strain Swiss, females, by gavage, site: lung, lesion: several types, types named in the paper, dosed 34 weeks, study length 95 weeks
  carcinogen call: negative (inactive)
mouse, strain Swiss, females, by gavage, site: lung, lesion: several types, types named in the paper, dosed 95 weeks, study length 95 weeks
  carcinogen call: negative (inactive)
mouse, strain Swiss, males, by gavage, site: lung, lesion: several types, types named in the paper, dosed 34 weeks, study length 95 weeks
  TD50: 144 mg/kg/day (inactive)
mouse, strain Swiss, males, by gavage, site: lung, lesion: several types, types named in the paper, dosed 95 weeks, study length 95 weeks
  TD50: 411 mg/kg/day (inactive)

## Cc1cccn2c1nc1ccc(N)nc12
mouse, strain CDF1, females, in feed, site: blood vessels, lesion: hemangioendothelial sarcoma, dosed 67 weeks, study length 67 weeks
  TD50: 13.8 mg/kg/day
mouse, strain CDF1, females, in feed, site: blood vessels, lesion: several types, types named in the paper, dosed 67 weeks, study length 67 weeks
  TD50: 10.9 mg/kg/day
mouse, strain CDF1, females, in feed, site: liver, lesion: hepatocellular adenoma, dosed 67 weeks, study length 67 weeks
  TD50: 44.1 mg/kg/day
mouse, strain CDF1, females, in feed, site: liver, lesion: hepatocellular carcinoma, dosed 67 weeks, study length 67 weeks
  TD50: 18.5 mg/kg/day
mouse, strain CDF1, females, in feed, site: liver, lesion: several types, types named in the paper, dosed 67 weeks, study length 67 weeks
  TD50: 5.08 mg/kg/day
mouse, strain CDF1, females, in feed, site: lung, lesion: adenoma, dosed 67 weeks, study length 67 weeks
  TD50: 166 mg/kg/day
mouse, strain CDF1, females, in feed, site: lung, lesion: several types, types named in the paper, dosed 67 weeks, study length 67 weeks
  TD50: 308 mg/kg/day
mouse, strain CDF1, males, in feed, site: blood vessels, lesion: hemangioendothelial sarcoma, dosed 57 weeks, study length 57 weeks
  TD50: 7.81 mg/kg/day
mouse, strain CDF1, males, in feed, site: blood vessels, lesion: hemangioendothelioma, dosed 57 weeks, study length 57 weeks
  TD50: 98.7 mg/kg/day
mouse, strain CDF1, males, in feed, site: blood vessels, lesion: several types, types named in the paper, dosed 57 weeks, study length 57 weeks
  TD50: 5.77 mg/kg/day
mouse, strain CDF1, males, in feed, site: liver, lesion: hepatocellular adenoma, dosed 57 weeks, study length 57 weeks
  TD50: 98.7 mg/kg/day
mouse, strain CDF1, males, in feed, site: lung, lesion: adenoma, dosed 57 weeks, study length 57 weeks
  TD50: 1000 mg/kg/day
rat, strain F344/DuCrj, females, in feed, site: Zymbal's gland, lesion: squamous-cell carcinoma, dosed 67 weeks, study length 67 weeks
  TD50: 12.7 mg/kg/day
rat, strain F344/DuCrj, females, in feed, site: brain, lesion: astrocytoma, dosed 67 weeks, study length 67 weeks
  TD50: 95.9 mg/kg/day
rat, strain F344/DuCrj, females, in feed, site: clitoral gland, lesion: one or several types, types not named, dosed 67 weeks, study length 67 weeks
  TD50: 56.1 mg/kg/day
rat, strain F344/DuCrj, females, in feed, site: colon, lesion: adenocarcinoma, dosed 67 weeks, study length 67 weeks
  TD50: 95.9 mg/kg/day
rat, strain F344/DuCrj, females, in feed, site: colon, lesion: adenoma, dosed 67 weeks, study length 67 weeks
  TD50: 71 mg/kg/day
rat, strain F344/DuCrj, females, in feed, site: colon, lesion: several types, types named in the paper, dosed 67 weeks, study length 67 weeks
  TD50: 39 mg/kg/day
rat, strain F344/DuCrj, females, in feed, site: liver, lesion: several types, types named in the paper, dosed 67 weeks, study length 67 weeks
  TD50: 8.39 mg/kg/day
rat, strain F344/DuCrj, females, in feed, site: small intestine, lesion: adenocarcinoma, dosed 67 weeks, study length 67 weeks
  TD50: 56.1 mg/kg/day
rat, strain F344/DuCrj, females, in feed, site: small intestine, lesion: adenoma, dosed 67 weeks, study length 67 weeks
  TD50: 146 mg/kg/day
rat, strain F344/DuCrj, females, in feed, site: small intestine, lesion: mucinous carcinoma, dosed 67 weeks, study length 67 weeks
  TD50: 71 mg/kg/day
rat, strain F344/DuCrj, females, in feed, site: small intestine, lesion: several types, types named in the paper, dosed 67 weeks, study length 67 weeks
  TD50: 26.1 mg/kg/day
rat, strain F344/DuCrj, males, in feed, site: Zymbal's gland, lesion: squamous-cell carcinoma, dosed 67 weeks, study length 67 weeks
  TD50: 10.2 mg/kg/day
rat, strain F344/DuCrj, males, in feed, site: colon, lesion: adenocarcinoma, dosed 67 weeks, study length 67 weeks
  TD50: 16.9 mg/kg/day
rat, strain F344/DuCrj, males, in feed, site: colon, lesion: adenoma, dosed 67 weeks, study length 67 weeks
  TD50: 15.4 mg/kg/day
rat, strain F344/DuCrj, males, in feed, site: colon, lesion: several types, types named in the paper, dosed 67 weeks, study length 67 weeks
  TD50: 9.45 mg/kg/day
rat, strain F344/DuCrj, males, in feed, site: liver, lesion: several types, types named in the paper, dosed 67 weeks, study length 67 weeks
  TD50: 3.25 mg/kg/day
rat, strain F344/DuCrj, males, in feed, site: small intestine, lesion: adenocarcinoma, dosed 67 weeks, study length 67 weeks
  TD50: 6.71 mg/kg/day
rat, strain F344/DuCrj, males, in feed, site: small intestine, lesion: adenoma, dosed 67 weeks, study length 67 weeks
  TD50: 8.21 mg/kg/day
rat, strain F344/DuCrj, males, in feed, site: small intestine, lesion: mucinous carcinoma, dosed 67 weeks, study length 67 weeks
  TD50: 236 mg/kg/day
rat, strain F344/DuCrj, males, in feed, site: small intestine, lesion: several types, types named in the paper, dosed 67 weeks, study length 67 weeks
  TD50: 5.89 mg/kg/day
